Laboratory results published in US20230374038A1, “MODULATORS OF CYSTIC FIBROSIS TRANSMEMBRANE CONDUCTANCE REGULATOR” (VERTEX PHARMACEUTICALS INCORPORATED, priority 2020, published 2023).

Target: T1, CFTR (Homo sapiens, UniProt P13569, DEL508-508)
T1 construct: endogenous in cells; host or cells: primary human bronchial epithelial cells, F508del/MF genotype
Assay: HBE Assay: Ussing chamber assay of CFTR-mediated short-circuit currents in F508del/MF-HBE cells with 1 μM Ivacaftor
Format: cell-based
Details: 20% human serum; for Emax: compared to known Vertex corrector with 18 μM Tezacaftor and 1 μM Ivacaftor, read-out: HBE Max activity (%); for HBE Activity at 10 μM: single fixed concentration of 10 μM
Experimental: Ussing chamber experiments were performed using human bronchial epithelial (HBE) cells derived from CF subjects heterozygous for F508del and a minimal function CFTR mutation (F508del/MF-HBE) and cultured as previously described (Neuberger T, Burton B, Clark H, Van Goor F Methods Mol Biol 2011:741:39-54). After four days the apical media was removed, and the cells were grown at an air liquid interface for >14 days prior to use.
(§1) To isolate the CFTR-mediated short-circuit (ISC) current, F508del/MF-HBE grown on Costar® Snapwell™ cell culture inserts were mounted in an Ussing chamber and the transepithelial ISC was measured under voltage-clamp recording conditions (Vhold=0 mV) at 37° C. The basolateral solution contained (in mM) 145 NaCl, 0.83 K2HIPO4, 3.3 KH2PO4, 1.2 MgCl2, 1.2 CaCl2), 10 Glucose, 10 HEPES (pH adjusted to 7.4 with NaOH) and the apical solution contained (in mM) 145 NaGluconate, 1.2 MgCl2, 1.2 CaCl2), 10 glucose, 10 HEPES (pH adjusted to 7.4 with NaOH) and 30 μM amiloride to block the epithelial sodium channel. Forskolin (20 μM) was added to the apical surface to activate CFTR, followed by apical addition of a CFTR inhibitor cocktail consisting of BPO, GlyH-101, and CFTR inhibitor 172 (each at 20 μM final assay concentration) to specifically isolate CFTR currents. The CFTR-mediated ISC (μA/cm^2) for each condition was determined from the peak forskolin response to the steady-state current following inhibition.
The activity of the CFTR corrector compounds on the CFTR-mediated ISC was determined in Ussing chamber studies as described above. The F508del/MF-HBE cell cultures were either incubated with the corrector compounds at a range of concentrations in combination with 1 μM Ivacaftor or were incubated with the corrector compounds at a single fixed concentration of 10 μM in combination with 1 μM Ivacaftor for 18-24 hours at 37° C. and in the presence of 20% human serum. The concentration of corrector compounds with 1 μM Ivacaftor during the 18-24 hours incubations was kept constant throughout the Ussing chamber measurement of the CFTR-mediated ISC to ensure compounds were present throughout the entire experiment.
as §1, with “K2HPO4,” for “K2HIPO4,”

[1] = range of concentrations with 1 μM Ivacaftor, 18-24 hours
[2] = with 1 μM Ivacaftor, 18-24 hours

T1 sequence (P13569 with tags, fused parts or gaps DEL508-508): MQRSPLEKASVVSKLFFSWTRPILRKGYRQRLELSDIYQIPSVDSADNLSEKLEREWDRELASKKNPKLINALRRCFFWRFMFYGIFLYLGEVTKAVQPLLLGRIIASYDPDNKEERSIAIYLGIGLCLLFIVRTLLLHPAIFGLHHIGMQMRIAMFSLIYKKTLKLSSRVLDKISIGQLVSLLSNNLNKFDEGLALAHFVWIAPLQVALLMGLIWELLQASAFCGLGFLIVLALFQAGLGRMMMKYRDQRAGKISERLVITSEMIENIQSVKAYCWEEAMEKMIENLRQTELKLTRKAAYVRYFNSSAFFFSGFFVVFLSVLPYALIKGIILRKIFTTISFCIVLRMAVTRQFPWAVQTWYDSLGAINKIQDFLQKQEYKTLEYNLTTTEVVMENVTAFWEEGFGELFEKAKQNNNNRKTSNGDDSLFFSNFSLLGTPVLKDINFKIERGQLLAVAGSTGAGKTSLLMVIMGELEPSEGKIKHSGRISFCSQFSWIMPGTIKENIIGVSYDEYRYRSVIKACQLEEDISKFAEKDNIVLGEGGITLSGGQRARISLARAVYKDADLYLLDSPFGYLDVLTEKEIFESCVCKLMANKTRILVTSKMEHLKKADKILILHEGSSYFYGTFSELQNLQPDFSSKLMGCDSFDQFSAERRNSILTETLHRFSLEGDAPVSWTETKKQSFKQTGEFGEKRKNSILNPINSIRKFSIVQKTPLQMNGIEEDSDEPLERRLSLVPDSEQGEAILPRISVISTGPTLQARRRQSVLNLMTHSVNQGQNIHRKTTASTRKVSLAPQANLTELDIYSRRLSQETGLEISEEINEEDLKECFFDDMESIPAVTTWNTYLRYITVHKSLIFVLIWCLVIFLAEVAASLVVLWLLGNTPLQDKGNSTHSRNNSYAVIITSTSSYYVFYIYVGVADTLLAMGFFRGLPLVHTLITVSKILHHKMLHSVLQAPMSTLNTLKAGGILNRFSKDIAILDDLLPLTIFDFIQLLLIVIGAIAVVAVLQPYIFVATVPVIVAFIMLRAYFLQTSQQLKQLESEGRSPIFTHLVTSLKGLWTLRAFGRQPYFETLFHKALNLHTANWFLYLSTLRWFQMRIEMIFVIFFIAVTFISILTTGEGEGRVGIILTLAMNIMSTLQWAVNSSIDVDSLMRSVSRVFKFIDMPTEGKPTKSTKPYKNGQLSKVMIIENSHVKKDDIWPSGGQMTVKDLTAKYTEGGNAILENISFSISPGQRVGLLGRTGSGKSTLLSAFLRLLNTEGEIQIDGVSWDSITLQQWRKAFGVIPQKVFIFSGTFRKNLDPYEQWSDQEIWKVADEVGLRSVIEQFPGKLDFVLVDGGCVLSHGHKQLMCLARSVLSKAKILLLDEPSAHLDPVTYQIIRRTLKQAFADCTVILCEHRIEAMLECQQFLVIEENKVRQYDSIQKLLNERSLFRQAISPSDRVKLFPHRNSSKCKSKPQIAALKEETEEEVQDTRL

Structure (SMILES)	EC50 [2]	HBE Max Activity [2]	HBE Activity at 10 μM (with 1 μM Ivacaftor)	further results
Cc1cccc(OC(C)C)c1-c1nc2nc(c1C)OC[C@@H](CC(C)(C)C)N(Cc1cncc(N(C)CC(C)(C)C)n1)C(=O)c1cccc(c1)S(=O)(=O)N2 (atropisomer, axis not shown) [Compound 332]	–	–	–	EC50 [1]: < 1 µM; Emax [2]: > 60%
Cc1cccc(CC2CCCCC2)c1-c1nc2nc(c1C)OC[C@@H](CC(C)(C)C)N(Cc1cccc(N(C)C(C)C)n1)C(=O)c1cccc(c1)S(=O)(=O)N2 (atropisomer, axis not shown) [Compound 255]	< 1 µM	+++ (+++ is >600%)	–	–
Cc1cccc(CC(C)C)c1-c1nc2nc(c1C)OC[C@@H](CC(C)(C)C)N(Cc1ncc(N3CCC(C)(C)C3)cn1)C(=O)c1cccc(c1)S(=O)(=O)N2 (atropisomer, axis not shown) [Compound 243]	1 to 3 µM	+++ (+++ is >600%)	–	–
Cc1cccc(C)c1-c1nc2nc(c1F)OC[C@@H](CC1CC1)N(Cc1ncc(OC(C)C)cn1)C(=O)c1cccc(c1)S(=O)(=O)N2 [Compound 343]	–	–	–	EC50 [1]: 1 to 3 µM; Emax [2]: > 60%
Cc1cccc(CC2CCCC2)c1-c1nc2nc(c1C)OC[C@@H](CC(C)(C)C)N(Cc1ccc(N3CCOCC3)cn1)C(=O)c1cccc(c1)S(=O)(=O)N2 (atropisomer, axis not shown) [Compound 288]	–	–	+++ (+++ is >600%)	–
COCCN(C)c1cnc(CN2C(=O)c3cccc(c3)S(=O)(=O)Nc3nc(c(C)c(-c4c(C)cccc4CC(C)C)n3)OC[C@H]2CC(C)(C)C)nc1 (atropisomer, axis not shown) [Compound 294]	< 1 µM	+++ (+++ is >600%)	–	–
Cc1cccc(CC(C)C)c1-c1nc2nc(c1C)OC[C@@H](CC(C)(C)C)NC(=O)c1cccc(c1)S(=O)(=O)N2 (atropisomer, axis not shown) [Compound 227]	–	–	+++ (+++ is >600%)	–
Cc1cccc(CC2CCOCC2)c1-c1nc2nc(c1C)OC[C@@H](CC(C)(C)C)N(Cc1ncc(N3CCC(C)(C)C3)cn1)C(=O)c1cccc(c1)S(=O)(=O)N2 (atropisomer, axis not shown) [Compound 272]	–	–	++ (++ is 30-60%)	–
Cc1cccc(CC2CCCCC2)c1-c1nc2nc(c1C(F)(F)F)OC[C@@H](CC(C)(C)C)N(Cc1ccc(N3CCOCC3)cn1)C(=O)c1cccc(c1)S(=O)(=O)N2 (atropisomer, axis not shown) [Compound 249]	–	–	++ (++ is 30-60%)	–
Cc1cccc(CC(C)C)c1-c1nc2nc(c1C)OC[C@@H](CC(C)(C)C)N(Cc1ncc(N(C)C)cn1)C(=O)c1cccc(c1)S(=O)(=O)N2 (atropisomer, axis not shown) [Compound 236]	< 1 µM	+++ (+++ is >600%)	–	–
Cc1cccc(C(C)C)c1-c1nc2nc(c1C)OC[C@@H](CC(C)(C)C)N(Cc1cnc(C3CCOCC3)cn1)C(=O)c1cccc(c1)S(=O)(=O)N2 (atropisomer, axis not shown) [Compound 318]	–	–	+++ (+++ is >600%)	–
Cc1cccc(CC2CCCC2)c1-c1nc2nc(c1C)OC[C@@H](CC(C)(C)C)N(Cc1ncc(N3CCOCC3)cn1)C(=O)c1cccc(c1)S(=O)(=O)N2 (atropisomer, axis not shown) [Compound 280]	< 1 µM	+++ (+++ is >600%)	–	–
Cc1cccc(CC2CCCCC2)c1-c1nc2nc(c1C)OC[C@@H](CC(C)(C)C)N(Cc1nccc(C(C)C)n1)C(=O)c1cccc(c1)S(=O)(=O)N2 [Compound 250]	< 1 µM	+++ (+++ is >600%)	–	–
Cc1cccc(CC2CCCCC2)c1-c1nc2nc(c1C(F)(F)F)OC[C@@H](CC(C)(C)C)N(Cc1ccc(N3CCOCC3)cn1)C(=O)c1cccc(c1)S(=O)(=O)N2 (atropisomer, axis not shown) [Compound 248]	–	–	+++ (+++ is >600%)	–
Cc1cccc(CC(C)C)c1-c1nc2nc(c1C(F)(F)F)OC[C@@H](CC(C)(C)C)N(Cc1ncc(N3CCOCC3)cn1)C(=O)c1cccc(c1)S(=O)(=O)N2 (single isomer, unassigned) [Compound 213]	–	–	+++ (+++ is >600%)	–
Cc1cccc(CC2CCCC2)c1-c1nc2nc(c1C)OC[C@@H](CC(C)(C)C)N(Cc1ccc(N3CCOCC3)cn1)C(=O)c1cccc(c1)S(=O)(=O)N2 (atropisomer, axis not shown) [Compound 289]	< 1 µM	+++ (+++ is >600%)	–	–
Cc1cccc(C)c1-c1nc2nc(c1C)OC[C@@H](C(C)C)N(Cc1ncc(OC(C)C)cn1)C(=O)c1cccc(c1)S(=O)(=O)N2 [Compound 197]	–	–	+++ (+++ is >600%)	–
Cc1cccc(CC2CCCCC2)c1-c1nc2nc(c1C)OC[C@@H](CC(C)(C)C)N(Cc1ccc(N3CCCCC3)cn1)C(=O)c1cccc(c1)S(=O)(=O)N2 (atropisomer, axis not shown) [Compound 308]	< 1 µM	+++ (+++ is >600%)	–	–
Cc1cccc(CC(C)C)c1-c1nc2nc(c1C)OC[C@@H](CC(C)C)N(Cc1cnc(C3CCOCC3)cn1)C(=O)c1cccc(c1)S(=O)(=O)N2 (atropisomer, axis not shown) [Compound 314]	< 1 µM	+++ (+++ is >600%)	–	–
Cc1cccc(CC(C)C)c1-c1nc2nc(c1C)OC[C@@H](CC(C)C)N(Cc1nccc(N(C)C(C)C)n1)C(=O)c1cccc(c1)S(=O)(=O)N2 (atropisomer, axis not shown) [Compound 231]	–	–	+++ (+++ is >600%)	–
Cc1cccc(CC(C)C)c1-c1nc2nc(c1C(F)(F)F)OC[C@@H](CC(C)(C)C)N(Cc1ccc(N3CCOCC3)cn1)C(=O)c1cccc(c1)S(=O)(=O)N2 (atropisomer, axis not shown) [Compound 246]	< 1 µM	+++ (+++ is >600%)	–	–
COc1ccc(CN2C(=O)c3cccc(c3)S(=O)(=O)Nc3nc(c(C)c(-c4c(C)cccc4CC4CCCCC4)n3)OC[C@H]2CC(C)(C)C)nc1 (atropisomer, axis not shown) [Compound 301]	< 1 µM	+++ (+++ is >600%)	–	–
Cc1cccc(CC(C)C)c1-c1nc2nc(c1C)OC[C@@H](CC(C)(C)C)N(Cc1ncc(OC(C)C)cn1)C(=O)c1cccc(c1)S(=O)(=O)N2 (atropisomer, axis not shown) [Compound 233]	< 1 µM	+++ (+++ is >600%)	–	–
Cc1cccc(CC(C)(C)C)c1-c1nc2nc(c1C)OC[C@@H](CC(C)(C)C)N(Cc1ncc(OC(C)C)cn1)C(=O)c1cccc(c1)S(=O)(=O)N2 (atropisomer, axis not shown) [Compound 351]	–	–	–	EC50 [1]: < 1 µM; HBE Activity at 10 μM (%) (single fixed concentration of 10 μM with 1 μM Ivacaftor, 18-24 hours): +++ (+++ is >60%); Emax [2]: > 60%
Cc1cccc(CC(C)C)c1-c1nc2nc(c1C)OC[C@@H](CC(C)(C)C)N(Cc1ncc(N3CCOCC3)cn1)C(=O)c1cccc(c1)S(=O)(=O)N2 (atropisomer, axis not shown) [Compound 295]	< 1 µM	+++ (+++ is >600%)	–	–
Cc1cccc(C)c1-c1nc2nc(c1F)OC[C@@H](CC(C)C)N(Cc1ncc(N3CCC(C)(C)C3)cn1)C(=O)c1cccc(c1)S(=O)(=O)N2 [Compound 342]	–	–	–	EC50 [1]: < 1 µM; Emax [2]: > 60%
Cc1cccc(CC(C)C)c1-c1nc2nc(c1C(F)(F)F)OC[C@@H](CC(C)(C)C)N(Cc1ncc(N3CCOCC3)cn1)C(=O)c1cccc(c1)S(=O)(=O)N2 (single isomer, unassigned) [Compound 212]	< 1 µM	+++ (+++ is >600%)	–	–
Cc1cccc(C)c1-c1nc2nc(c1C)OC[C@@H](CC(C)(C)C)N(Cc1ncc(N3CCC(C)(C)CC3)cn1)C(=O)c1cccc(c1)S(=O)(=O)N2 [Compound 192]	–	–	+++ (+++ is >600%)	–
